Consider 25 molecules from patent US4244954A, “Acridine compounds and methods of combatting viruses with them” (Sterling Drug Inc., priority 1978, dated 1981).

Read-outs that look alike come from different tables or passages of the source.

Data set [1] concerns herpes simplex virus type 2. Kind of data set: in vitro antiviral activity, serial dilution, herpes simplex virus type 2. The data set is classed as cell-based. Particulars: Human alphaherpesvirus 2. The procedure:
(§1) Antiviral activity was determined in vitro by the conventional serial dilution technique against selected virus species such as herpes simplex virus types 1 and 2. In vivo antiviral activity was determined against herpes virus in the mouse genital model and the guinea pig skin infection model.

In a further data set the test system is herpes simplex type 2. Kind of data set: in vivo antiviral activity, mouse genital model. Also on record: species or system mice. How it is done: as §1
Another data set relates to herpes simplex virus 1. Nature of the data set: in vitro antiviral activity, serial dilution, herpes simplex virus type 1. The data set is classed as cell-based. Particulars: Human alphaherpesvirus 1, read-out: concentration at which active against herpes simplex virus 1. How it is done: as §1
Data set [2] relates to influenza virus A2 /Jap 170. Nature of the data set: influenza virus titers in ferret nasal washings. The data set is classed as in vivo. Particulars: 100-200 mg/kg/day.
Data set [3] concerns six herpes simplex strains. Nature of the data set: plaque count reduction, six herpes simplex strains. The data set is classed as cell-based, herpes simplex virus. To be noted: at 4-10 mg./ml.
The subject of data set [4] is herpes simplex virus type 1. Kind of data set: in vivo antiviral activity, guinea pig skin infection model. To be noted: after 48 hours of topical treatment. The procedure:
as §1

Data set [5] deals with Trypanosoma brucei. Kind of data set: prophylactic-suppressive test against Trypanosoma brucei infection in mice. The data set is classed as in vivo. To be noted: oral, 50 mg per kg per day. How it is done:
(§2) Trypanosomacidal activity was determined against Trypanosoma brucei in mice. In a curative test medication was given (orally or parenterally) as a single dose or daily in equally subdivided doses eight hours apart for four days beginning 72 hours after intraperitoneal infection. In a prophylactic-suppressive test the total daily medication was given as a single treatment one day prior to infection, and thereafter for three consecutive days the total daily medications were administered as equally subdivided doses eight hours apart. The infection was uniformly fatal in five to six days in the absence of therapy. Chemotherapeutic effectiveness was based on extension of survival time. Tests were considered terminated 28 days after infection.

Data set [6] deals with Trypanosoma brucei. The data set is classed as in vivo, mice. Particulars: for curative effect against T. brucei infection: mice, oral. How it is done: as §2
For a further data set, the system named is Endameba criceti. Kind of data set: amebicidal activity in infected hamsters. The data set is classed as in vivo. To be noted: Mesocricetus auratus, 72 h, oral, read-out: dose at which active orally against Endameba criceti in hamsters. The procedure:
Amebicidal activity was determined by oral administration of the test compound orally to hamsters infected with Endameba criceti and the amount of drug necessary to clear the animals of infection in three days was determined.

The subject of another data set is S. aureus. Kind of data set: in vitro antimicrobial activity, serial dilution, S. aureus. The data set is classed as cell-based. To be noted: Staphylococcus aureus, read-out: minimum inhibitory concentration (MIC), bacteriostatic activity against S. aureus. The procedure:
(§3) The antimicrobial activity of the compounds was determined in vitro by the conventional serial dilution technique against several species of bacteria and fungi, e.g. S. aureus, S. pyogenes, C. albicans, T. mentagrophytes.

A further data set concerns S. pyogenes. Kind of data set: in vitro antimicrobial activity, serial dilution, S. pyogenes. Particulars: Streptococcus pyogenes, read-out: minimum inhibitory concentration (MIC), bacteriostatic activity against S. pyogenes. The data set is classed as cell-based. The procedure:
as §3

The mark [7] stands for this setting: read-out: concentration at which active in vitro against herpes simplex virus type 2.
[8] abbreviates: in vitro, read-out: concentration at which active against herpes simplex virus 2.

`CN(C)CCOc1ccc2c(c1)c(=O)c1ccccc1n2C` [Example 1, 2-(2-Dimethylaminoethoxy)-10-methyl-9(10H)-acridinone]: the minimal effective concentration in data set [1] (setting [7]) was in the range of 3 to 6 µg/mL.

As for `Cn1c2ccccc2c(=O)c2cc(OCCN3CCCC3)ccc21` [Example 7, 2-[2-(1-Pyrrolidyl)ethoxy]-10-methyl-9(10H)-acridinone], the minimal effective concentration (in [1] (setting [8]); in the data set with herpes simplex virus 1) was 6 µg/mL each time. For the same molecule, the “effect against herpes virus 2 genital infection in mice” value with herpes simplex type 2 (mice, genital infection) was “effective”.

Take `Cn1c2ccccc2c(=O)c2cc(OCCN3CCOCC3)ccc21` [Example 8, 2-[2-(4-Morpholinyl)ethoxy]-10-methyl-9(10H)-acridinone]: the minimal effective concentration (in data set [1] (setting [8]); in the data set on herpes simplex virus 1) was 25 µg/mL each time.

Consider `CN1CCN(CCOc2ccc3c(c2)c(=O)c2ccccc2n3C)CC1` [Example 9, 2-[2-(4-Methyl-1-piperazinyl)ethoxy]-10-methyl-9(10H)-acridinone], for which the minimal effective concentration (in [1] (setting [8]); with herpes simplex virus 1) was 25 µg/mL each time.

`Cn1c2ccccc2c(=O)c2cc(OCCN3CCCCC3)ccc21` [Example 10, 2-[2-(1-Piperidyl)ethoxy]-10-methyl-9(10H)-acridinone]: the minimal effective concentration in the data set with herpes simplex virus 1 amounted to 6 µg/mL.

For the molecule `CCn1c2ccccc2c(=O)c2cc(OCCN3CCCC3)ccc21` [Example 11, 2-[2-(1-Pyrrolidyl)ethoxy]-10-ethyl-9(10H)-acridinone], the minimal effective concentration (in data set [1] (setting [8]); in the data set with herpes simplex virus 1) was 25 µg/mL throughout.

Consider `Cn1c2ccccc2c(=O)c2cccc(OCCN3CCCC3)c21` [Example 13, 4-[2-(1-Pyrrolidyl)ethoxy]-10-methyl-9(10H)-acridinone], for which the minimal effective concentration in data set [1] (setting [8]) turned out to be 12 µg/mL.

`Cn1c2ccccc2c(=O)c2cccc(OCCN3CCCCC3)c21` [Example 15, 4-[2-(1-Piperidyl)ethoxy]-10-methyl-9(10H)-acridinone]: the minimal effective concentration in [1] (setting [8]) is 12 µg/mL.

On to `Cn1c2ccccc2c(=O)c2cc(OCCCCN3CCCC3)ccc21` [Example 16, 2-[4-(1-Pyrrolidyl)butoxy]-10-methyl-9(10H)-acridinone], for which the minimal effective concentration (in data set [1] (setting [8]); in the data set on herpes simplex virus 1) was 6 µg/mL in each case.

As for `CN(C)CCOc1cccc2c1c(=O)c1ccccc1n2C` [Example 27, 1-(2-Dimethylaminoethoxy)-10-methyl-9(10H)-acridinone], the minimal effective concentration (in [1] (setting [8]); with herpes simplex virus 1) was 6 µg/mL in each case. Besides, in data set [2], the “reduction in influenza virus A2 /Jap 170 titers in ferret nasal washings” value was “significant reduction”. Moreover, in data set [3], the “reduction of the plaque counts of six herpes simplex strains” value is “at least 50%”. The “survival in mice with genital herpes simplex type 2 infection” value with herpes simplex type 2 (concentrations ranging from 2.5 to 10%) is 50-90%. The “reduction of virus titer of herpes simplex virus type 1 in guinea pig skin infection” value in data set [4] is listed as “more than 99%”.

Turning to `Cn1c2ccccc2c(=O)c2c(OCCN3CCCCC3)cccc21` [Example 33, 1-[2-(1-Piperidyl)ethoxy]-10-methyl-9(10H)-acridinone], the minimal effective concentration in the data set on herpes simplex virus 1 was 6 µg/mL.

Take `CN1C2CCCC1CC(Oc1cccc3c1c(=O)c1ccccc1n3C)C2` (stereo not drawn) [Example 34, exo-1-(9-Methylgranatanin-3-yloxy)-10-methyl-9(10H)-acridinone]: the minimal effective concentration (in data set [1] (setting [8]); with herpes simplex virus 1) was 25 µg/mL in each case.

Take `CN(C)CCOc1ccc2c(c1)C(O)(c1ccccc1)c1ccccc1N2C` (stereo not drawn) [Example 37, 2-(2-Dimethylaminoethoxy)-9,10-dihydro-10-methyl-9-phenyl-9-acridinol]: the “prophylactic effect against T. brucei infection” value with Trypanosoma brucei [5] was “completely effective”. Besides, in the data set with Trypanosoma brucei [6] (intramuscularly, single dose of 200 mg/kg three days after infection), the “effect against T. brucei infection, intramuscular” value is given as “completely effective”. Further, the “effect against T. brucei infection, intraperitoneal” value in the data set with Trypanosoma brucei [6] (intraperitoneally, single dose of 200 mg/kg three days after infection) is “completely effective”. For the same molecule, the “curative effect against T. brucei infection” value in the data set with Trypanosoma brucei [6] (25 mg/kg/day×4) is recorded as “completely effective”. Further, the “effect against T. brucei infection, subcutaneous” value in the data set with Trypanosoma brucei [6] (subcutaneously, single dose of 200 mg/kg three days after infection) is reported as “completely effective”.

Consider `CCN(CC)CCOc1ccc2c(c1)C(O)(c1ccccc1)c1ccccc1N2C` (stereo not drawn) [Example 38, 2-(2-Diethylaminoethoxy)-9,10-dihydro-10-methyl-9-phenyl-9-acridinol], for which the “curative effect against T. brucei infection” value with Trypanosoma brucei [6] (50 mg/kg/day×4) is reported as “completely effective”.

For `COc1ccc(C2(O)c3ccccc3N(C)c3ccc(OCCN(C)C)cc32)cc1` (stereo not drawn) [Example 65, 2-(2-Dimethylaminoethoxy)-9,10-dihydro-9-(4-methoxyphenyl)-10-methyl-9-acridinol], the “curative effect against T. brucei infection” value with Trypanosoma brucei [6] (200 mg/kg/day×4) was “completely effective”.

As to `CN(C)CCOc1ccc2c(c1)c(-c1ccccc1)c1ccccc1[n+]2C.Cl.[Cl-]` [Example 68, 2-(2-Dimethylaminoethoxy)-10-methyl-9-phenylacridinium chloride hydrochloride], the “curative effect against T. brucei infection” value in the data set on Trypanosoma brucei [6] (25 mg/kg/day×4) was “completely effective”. The “toxicity upon parenteral administration” value in the data set with Trypanosoma brucei [6] (mouse, in vivo) is recorded as “toxic”. The “curative effect against T. brucei infection, parenteral” value with Trypanosoma brucei [6] (parenteral, 50 mg/kg dose level) is on record as “some curative effect”.

In the case of `CN(C)CCOc1ccc2c(c1)c(Cc1ccccc1)c1ccccc1[n+]2C.Cl.[Cl-]` [Example 78, 2-(2-Dimethylaminoethoxy)-10-methyl-9-benzylacridinium chloride hydrochloride], in the data set with Trypanosoma brucei [6] (100 mg/kg/day×4), the “curative effect against T. brucei infection” value is on record as “completely effective”. In addition, the minimal effective dose in the data set on Endameba criceti was found to be 100 mg/kg.

For the molecule `CN(C)CCOc1ccc2c(c1)c(Cc1ccc(F)cc1)c1ccccc1[n+]2C.Cl.[Cl-]` [Example 79, 2-(2-Dimethylaminoethoxy)-10-methyl-9-(4-fluorobenzyl)acridinium chloride hydrochloride], the “curative effect against T. brucei infection” value in the data set with Trypanosoma brucei [6] (200 mg/kg/day×4) is on record as “completely effective”. Further, the minimal effective dose in the data set with Endameba criceti was found to be 100 mg/kg.

With `Cc1ccc(Cc2c3ccccc3[n+](C)c3ccc(OCCN(C)C)cc23)cc1.Cl.[Cl-]` [Example 80, 2-(2-Dimethylaminoethoxy)-10-methyl-9-(4-methylbenzyl)acridinium chloride hydrochloride], the “curative effect against T. brucei infection” value in the data set with Trypanosoma brucei [6] (200 mg/kg/day×4) is on record as “ineffective”. For the same molecule, the MIC in the data set on S. aureus was found to be 15.6 µg/mL; in the data set with S. pyogenes, 7.8 µg/mL.

Regarding `CN(C)CCOc1ccc2c(Cc3ccccc3)c3ccccc3[n+](C)c2c1.Cl.[Cl-]` [Example 81, 3-(2-Dimethylaminoethoxy)-10-methyl-9-benzylacridinium chloride hydrochloride], the “curative effect against T. brucei infection” value in the data set with Trypanosoma brucei [6] (100 mg/kg/day×4) was “completely effective”. For the same molecule, the MIC in the data set with S. aureus (in vitro) and with S. pyogenes was 31.3 µg/mL each time.

Regarding `CN(C)CCCOc1ccc2c(Cc3ccccc3)c3ccccc3[n+](C)c2c1.Cl.[Cl-]` [Example 82, 3-(3-Dimethylaminopropoxy)-10-methyl-9-benzylacridinium chloride hydrochloride], the “curative effect against T. brucei infection” value with Trypanosoma brucei [6] (100 mg/kg/day×4) is given as “completely effective”. Besides, in the data set on S. aureus (in vitro), the MIC came to 31.3 µg/mL.

On to `CN(C)CCOc1ccc2c(c1)c(Cc1ccc(Cl)cc1)c1ccccc1[n+]2C.Cl.[Cl-]` [Example 83, 2-(2-Dimethylaminoethoxy)-10-methyl-9-(4-chlorobenzyl)acridinium chloride hydrochloride], for which the minimal effective concentration in data set [1] (concentration at which active, read-out: antiviral activity against herpes type 2) turned out to be 25 µg/mL. Moreover, the “curative effect against T. brucei infection” value in the data set with Trypanosoma brucei [6] (200 mg/kg/day×4) was “ineffective”. The MIC in the data set with S. aureus (in vitro) was 7.8 µg/mL.

With `CN(C)CCOc1ccc2c(c1)c(Cc1cccc(F)c1)c1ccccc1[n+]2C.Cl.[Cl-]` [Example 84, 2-(2-Dimethylaminoethoxy)-10-methyl-9-(3-fluorobenzyl)acridinium chloride hydrochloride], in the data set with Trypanosoma brucei [6] (200 mg/kg/day×4), the “curative effect against T. brucei infection” value was “completely effective”. Also, the MIC in the data set on S. aureus (in vitro) and in the data set with S. pyogenes was 15.6 µg/mL throughout.

With `CCN(CC)CCOc1ccc2c(c1)c(Cc1ccccc1)c1ccccc1[n+]2C.Cl.[Cl-]` [Example 85, 2-(2-Diethylaminoethoxy)-10-methyl-9-benzylacridinium chloride hydrochloride], in the data set on Trypanosoma brucei [6] (100 mg/kg/day×4), the “curative effect against T. brucei infection” value is on record as “completely effective”. In addition, the MIC in the data set with S. aureus (in vitro) and in the data set on S. pyogenes was 31.3 µg/mL each time.

For `COc1ccc2c(c1)c(Cc1ccccc1)c1ccc(OCCN(C)C)cc1[n+]2C.Cl.[Cl-]` [Example 87, 3-(2-Dimethylaminoethoxy)-7-methoxy-10-methyl-9-benzylacridinium chloride hydrochloride], the minimal effective concentration in [1] (setting [7]) was 12 µg/mL. Further, in the data set with Trypanosoma brucei [6] (200 mg/kg/day×4, route and test type not given), the “effect against T. brucei” value is “ineffective”.
